Test [1] relates to TNF-α. Conditions: cited from earlier work.
The subject of test [2] is TNF-α. The experiment in a line: TNF-α secretion by human PBM, ELISA of supernatants. Type of test: cell-based. Conditions: for effect on BN52207 induced secretion of TNF-α: PBM 18 hours with BN52207 (5 μg/ml), emetine (1 μg/ml), cycloheximide (5 μg/ml). Here is the method: Also referring to FIG. 2, the AALP analogues, are therein shown to have immunoregulatory properties. The effect of AALP on the secretion of TNF-α, IL-1β, IL-6, and IL-10 cytokines by both resting and LPS and IFN-γ activated human peripheral blood derived monocytes. Human PBM were incubated for 18 hours at 37° C. in the absence or in the presence of different concentrations of AALP analogues. The cell-free supernatants were harvested and clarified by centrifugation and assessed for the presence of TNF-α, IL-1β, and IL-6 by Enzyme Linked Immunosorbant Assay (ELISA). For TNF-α, there was stimulation of secretion by all compounds at concentrations >0.6 μg/ml and up to 10 μg/ml. […] Similar findings were also obtained for IL-1β. There was no significant difference in the levels of stimulated TNF-α and IL-1β among the five AALP compounds. In contrast to TNF-α and IL-1β, there was no significant stimulation of IL-6 above background levels upon stimulation by any of the five AALP analogues. However, there was significant inhibition of IL-6 secretion at 10 μg/ml and the levels were below the spontaneous secretion of IL-6.
As a result of the similarity of results of the five AALP on PBM, BN52207 was selected to conduct the following experiments. However, it is to be understood that any other AALP analogue may be used to obtain a similar result. Now referring to FIG. 3, human PBM were incubated for 18 hours at 37° C. in the presence or absence of different concentration of BN52207. The PBM were left untreated or treated with IFN-γ (500 U/ml) or LPS (1 μg/ml) added at the initiation of the culture. The supernatants were harvested, clarified by centrifugation, and stored at −70° C. The levels of TNF-α with IFN-γ (FIG. 3A), LPS (FIG. 3B), or BN+LPS (FIG. 3C) activated PBM were assessed by ELISA.
BN52207 potentiated the secretion of TNF-α from IFN-γ-activated PBM and LPS-activated PBM. […] Now referring to FIG. 4, to confirm de novo synthesis of TNF-α mRNA PBM were treated with protein synthesis inhibitors. PBM were incubated for 18 hours with BN52207 (5 μg/ml) in the absence or presence of LPS (1 μg/ml), LPS (1 μg/ml) plus pentoxifylline (50 μg/ml), emetine (1 μg/ml), and cycloheximide (5 μg/ml). The cell-free supernatants were collected and clarified by centrifugation and the level of TNF-α in the supernatants was assessed by ELISA.
Now referring to FIGS. 8 A, B, and C, the kinetics of induction/inhibition of cytokine secretion by AALP were examined. […]
Human peripheral blood was obtained from normal volunteers as per HSPC guidelines of UCLA. […] The adherent cells prepared by this procedure were primarily monocytes (>90%) as determined by esterase staining and flow cytometry using markers for monocytes, T cells, B cells, and NK cells. […]
On the technique in general: An ELISA detects its analyte on a solid surface through an enzyme-linked reagent.

Consider `CC1C(=O)OC2C(O)C34C5CC(C(C)(C)C)C36C(OC(=O)C6O)OC4(C(=O)O5)C12O` (centres unmarked) [BN52021], for which, in test [1], the “effect on TNF-α augmented production by PAF in monocytes” value is listed as “blocks”.

Turning to `C[C@@H]1C[C@@H]([C@H](O)CC2CC(=O)NC(=O)C2)C(=O)[C@@H](C)C1` [CHX, cycloheximide], in test [2] (FIG. 4), the “effect on BN52207 induced secretion of TNF-α” value is recorded as “inhibited”.

For the compound `CC[C@H]1CN2CCc3cc(OC)c(OC)cc3[C@@H]2C[C@@H]1C[C@H]1NCCc2cc(OC)c(OC)cc21` [emetine], in test [2] (FIG. 4), the “effect on BN52207 induced secretion of TNF-α” value was “inhibited”.

Turning to `CC(=O)CCCCn1c(=O)c2c(ncn2C)n(C)c1=O` [pentoxifylline], the “effect on BN enhanced stimulation of TNF-α secretion by LPS stimulated PBM” value in test [2] (PBM 18 hours, BN52207 (5 μg/ml) + LPS (1 μg/ml) + pentoxifylline (50 μg/ml), FIG. 4) was “inhibited”.

Regarding “IFN-γ: recombinant interferon-γ, a gift from Genentech”, the “TNF-α secretion on stimulation of PBM with IFN-γ alone” value in test [2] (IFN-γ (500 U/ml), 18 hours, FIG. 3A) is reported as “results in the secretion of TNF-α”.
